# Molecular target: T1, OATP1B1 (Homo sapiens, UniProt Q9Y6L6)
# T1 construct: expressed in transfected cells; host or cells: HEK293
# T1 sequence (Q9Y6L6 1-691): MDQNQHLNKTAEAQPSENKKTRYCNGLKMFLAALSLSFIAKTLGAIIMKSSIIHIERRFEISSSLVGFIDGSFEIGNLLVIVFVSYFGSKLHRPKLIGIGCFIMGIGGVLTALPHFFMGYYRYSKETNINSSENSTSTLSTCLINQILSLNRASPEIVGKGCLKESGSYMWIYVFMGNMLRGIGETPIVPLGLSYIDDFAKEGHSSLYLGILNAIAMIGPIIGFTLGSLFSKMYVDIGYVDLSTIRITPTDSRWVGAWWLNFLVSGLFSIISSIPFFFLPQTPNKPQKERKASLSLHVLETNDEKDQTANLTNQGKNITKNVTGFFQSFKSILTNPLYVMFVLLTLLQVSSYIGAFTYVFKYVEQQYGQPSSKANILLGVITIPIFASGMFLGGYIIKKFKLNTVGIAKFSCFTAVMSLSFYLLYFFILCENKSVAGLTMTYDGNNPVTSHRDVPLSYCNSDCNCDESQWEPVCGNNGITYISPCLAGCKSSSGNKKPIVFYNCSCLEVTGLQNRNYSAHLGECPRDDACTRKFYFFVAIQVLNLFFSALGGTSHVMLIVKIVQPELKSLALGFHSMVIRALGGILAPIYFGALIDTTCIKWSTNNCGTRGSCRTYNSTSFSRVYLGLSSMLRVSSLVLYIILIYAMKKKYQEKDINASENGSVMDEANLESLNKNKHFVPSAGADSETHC
# Assay: OATP1B1 transporter substrate uptake in OATP1B1-HEK293 cells
# Type: in vitro ADME
# Protocol: Protocol for identification of compounds that are substrates of transporters OATPIBI and OATPIB3. Transfected HEK293 and vector control HEK293 cells were cultured in 24-well poly-D-lysine or collagen-coated tissue culture plates ([…]) for 2 and 10 minutes respectively in transport buffer (HBSSg, pH 7.4, pre-warmed to 37° C.). At a defined time point, the uptake experiments were stopped by removing dosing solution followed by two washes of ice-cold HBSSg buffer. The cells were lysed for 2 minutes with 75% ACN containing an appropriate internal standard (when available). Lysis buffer were chilled to −20° C., and the plate was kept on ice during lysis. The cell lysate was transferred into a 96-well plate for sample analysis with LC-MS/MS analysis to determine concentration of test compound in cell lysate. The uptake of test compounds was normalized by total cell protein using the BCA Protein Assay Kit following the manufacturer's protocol. The inhibitor Rifamycin SV was used to block OATP1B1 and OATP1B3 transporter activity in order to determine uptake ratios.
compound,measurement,setting,value
"COc1cc2c(cc1OCCCCCCC(=O)O)C[C@@H](C(C)C)n1cc(C(=O)O)c(=O)cc1-2 [Example 6, (S)-9-((6-carboxyhexyl)oxy)-6-isopropyl-10-methoxy-2-oxo-6,7-dihydro-2H-pyrido[2,1-a]isoquinoline-3-carboxylic acid]",Uptake Ratio (−/+Inhibitor),"OATP1B1-HEK293 cells, test concentration 1 μM, inhibitor Rifamycin SV",11.17
same,Uptake Ratio (Transporter(−Inhibitor)/Mock(−Inhibitor)),"OATP1B1-HEK293 vs mock HEK293, test concentration 1 μM",18.99
